Experiments:
WM115 cells = assay: WM115 melanoma cell viability; assay type: cell-based, human; details: WM115 cells
Description: Cell lines. Mouse melanoma (SW1) and human melanoma (LU1205) cells were maintained in DMEM supplemented with 10% FBS, L-glutamine and antibiotics. The human melanoma cell lines MEWO and WM115 were maintained in RPMI supplemented with 10% FBS and antibiotics. Primary mouse melanocytes were cultured in F-12 media supplemented with 10% FBS, antibiotics, IBMX (isobuthyl-methylxantine), bovine pituitary extract, and TPA.
Mitochondrial activity and apoptosis. Cells were exposed to the chemicals for 12-48 hours as indicated in Results. To measure changes in mitochondrial activity reflective of general cell viability, the ATPLITE ATP detection assay was used according to the manufacturer's recommendations (Perkin Elmer). Apoptosis analysis was performed by flow cytometry of PI-stained cells. The percentage of cells to the left of the diploid G0/1 peak, characteristic of hypodiploid cells that have partially lost DNA, was calculated as percentage of apoptotic cells (Bhoumik et al., PNAS 101:4222-7, 2004). Analysis of changes in Caspase 8 expression pattern was performed using immunoblot analysis.
The effects of CSL and AIGA on the human melanoma cell lines WM115 and MEWO were assessed. AIGA reduced the viability of the human melanoma cultures when added at a concentration of 0.5-2 μM (FIG. 5a and FIG. 5c) whereas CSL reduced their viability at a concentration of 0.1 μM-2 μM in WM115 cells (FIG. 5b) and 0.05 μM-2 μM in MeWO cells (FIG. 5d).

[1] = tested on: Human melanoma LU1205 cells; assay: LU1205 lung metastasis in nude mice; assay type: in vivo, mouse; details: compound every second day, analysis 60 days after injection
Description: (§1) Tumor growth and metastasis in vivo. GFP-expressing SW1 cells were trypsinized, resuspended in PBS, and injected subcutaneously (1×10^6) into the lower flank of 6 to 7-week-old mice. When tumors reached a size of about 50 mm^3, the indicated compounds (100 μL of the vehicle—10% DMSO, 70% Cremophor/ethanol (3:1), and 20% PBS and 1.0 mg/kg of celastrol or 0.5 mg/kg of the derivatives CA16, CA19) were injected i.p. every alternate day. Body weight and tumor growth were monitored every 2 days. GFP-expressing SW1 tumors were monitored in vivo on shaved mice with a light box illuminated by blue light fiber optics (Lightools Research; Encinitas, Calif.), and imaging was carried out with a digital camera (Nikon D100). Tumors were measured for up to 3 weeks. For metastases studies, LU1205 cells (1×10^6) were injected i.v. into the lateral tail vein of nude mice. At the end of the experiment, the lungs and tumors were excised and weighed. To detect metastatic lesions, lungs were fixed in formalin, embedded in paraffin and subjected to hematoxylin and eosin staining.
The effect of CSL and CSL derivatives, CA16 and CA19, on the metastatic capacity of melanoma cells was then determined. Human melanoma LU1205 cells were injected into the tail vein of nude mice, followed by administration of the compounds every second day. This approach allows monitoring of changes in the number of lesions formed on the lungs, a primary organ for tumor cell growth under this experimental approach. Analysis performed 60 days following injection determined changes in the number and size of metastatic lesions in each of the experimental groups.

Mdm2 and p53 = assay: Stability of short-lived proteins; assay type: cell-based; details: 0.3-1 μM, data not shown
Excerpt: CSL was also shown to inhibit NF-κB activation through the inhibition of IKB kinase and TAK1 activities. […] Thus, it is likely that the ability of CSL to attenuate NF-κB activity would result in increased JNK activity, which is consistent the findings herein. It is the increase in JNK activity, and consequently of its substrate c-Jun, in concert with inhibition of ATF2 activities that brings about the potent cytotoxic effects of both CSL and AIGA on melanoma cells, similar to what was previously shown for the ATF2 peptides.

SW1 tumors = assay: SW1 tumor growth in syngeneic C3H mice; assay type: in vivo, mouse; details: 1 mg/kg i.p. every second day for 24 days
Description: as §1
(§2) To assess the ability of CSL and CSL derivatives to affect the tumorigenicity and metastasis of melanoma, the mouse SW1 cell lines were used in syngeneic models. Injection of SW1 melanoma cells subcutaneously into C3H mice was followed by daily injections of CSL intraperitoneally (IP). […] Briefly, SW1 cells that stably express GFP were injected s.c into C3H mice. When the tumor reached the size of 50 mm^3, the vehicle, CSL (1 mg/kg), CA16 (0.5 mg/kg) or CA19 (0.5 mg/kg) were administered i.p, every second day for a period of 24 days. Tumor size was measured at the indicated times. Data presented in FIG. 6b represents two experiments.

[2] = Tolerability of administration to mice; assay type: in vivo, mouse; details: daily administration, doses up to 1 mg/kg
Description: as §2

SW1 mouse melanoma = assay: SW1 metastatic lesions in syngeneic C3H mice; assay type: in vivo; details: SW1 cells s.c. in C3H mice
Description: as §1
To further assess the impact of these compounds on the development of metastatic lesions, the SW1 mouse melanoma model using the syngeneic C3H strain was employed. Subcutaneous injection of SW1 cells results in tumor formation at the site of injection followed by metastasis to different sites within 6-8 weeks.

Row | Structure (SMILES) | concentration at which viability was reduced (WM115 cells) | growth of large, medium and small sized lesions in the lungs [1] | stability of short-lived proteins, including Mdm2 and p53 (Mdm2 and p53) | reduction of tumor growth (SW1 tumors) | toxicity or discomfort in mice [2] | metastatic lesions (SW1 mouse melanoma)
1 | CC(=O)Oc1c2c(c(CC=C(C)C)c3c1C(=O)C1=C[C@@H]4CC5C(C)(C)OC(C/C=C(\C)C(=O)O)(C4=O)[C@@]15O3)OC(C)(CCC=C(C)C)C=C2 (stereo partly drawn) [AIGA, Acetyl isogambogic acid] | 0.5 to 2 µM |  |  |  |  | 
2 | CC1=C(O)C(=O)C=C2C1=CC=C1[C@@]2(C)CC[C@@]2(C)[C@@H]3C[C@](C)(C(=O)O)CC[C@]3(C)CC[C@]12C [Celastrol] |  | efficient in inhibiting growth of large medium and small sized lesions in the lungs | did not affect | 5 fold | did not result in toxicity or any noticeable discomfort | potently exhibit the ability to inhibit large as well as small metastatic lesions, with the exception of the 1-2 mm range

— patent US7888355B2, “Compositions and methods for inhibiting growth and metastasis of melanoma” (Burnham Institute for Medical Research, priority 2007, dated 2011)
